System: barnyard grass
Test: Test Example 5: herbicidal effect by foliage application, plastic box (Table 20, symbol H)
Format: in vivo, barnyard grass (Echinochloa crus-galli)
Conditions: foliage application, 320 g/ha, 3 weeks after application
In short: (§1)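 Plants sown in sterilized diluvial soil and grown 14 days in a greenhouse at 25° C to 30° C, then sprayed on the foliage with the compound's emulsion diluted in water to a predetermined herbicide amount. Injury to weeds and crops scored three weeks after application on a visual rating scale.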

| Structure (SMILES) | effect on barnyard grass (H) |
| --- | --- |
| Cc1nn(C)c(=O)c(-c2c(-c3ccc(OCC(F)F)cc3)sc3ccccc23)c1O [1-203] | 5 (Herbicidal rate of 90% or more (almost completely withered)) |
| CCCCOc1ccc(-c2sc3ccc(F)cc3c2-c2c(OC(=O)CCC)c(C)nn(C)c2=O)cc1 [2-037] | 2 (Herbicidal rate of 20% or more and less than 40%) |
| CCCC(=O)Oc1c(C)nn(C)c(=O)c1-c1c(-c2ccc(CC)cc2)sc2ccc(F)cc12 [2-016] | 3 (Herbicidal rate of 40% or more and less than 70%) |

System: wild oat
Test: Test Example 5: herbicidal effect by foliage application, plastic box (Table 20, symbol I)
Format: in vivo, wild oat (Avena fatua)
Conditions: foliage application, 320 g/ha, 3 weeks after application
In short: as §1

| Structure (SMILES) | effect on wild oat (I) |
| --- | --- |
| Cc1nn(C)c(=O)c(-c2c(-c3ccc(OCC(F)F)cc3)sc3ccccc23)c1O [1-203] | 0 (Herbicidal rate of 5% or less (almost no effect)) |
| CCCCOc1ccc(-c2sc3ccc(F)cc3c2-c2c(OC(=O)CCC)c(C)nn(C)c2=O)cc1 [2-037] | 0 (Herbicidal rate of 5% or less (almost no effect)) |
| CCCC(=O)Oc1c(C)nn(C)c(=O)c1-c1c(-c2ccc(CC)cc2)sc2ccc(F)cc12 [2-016] | 3 (Herbicidal rate of 40% or more and less than 70%) |

System: redroot pigweed
Test: Test Example 4: herbicidal effect by soil treatment (Table 19, symbol N)
Format: in vivo, redroot pigweed (Amaranthus retroflexus)
Conditions: 320 g/ha
In short: (§2)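 Seeds were sown in sterilized diluvial soil and covered with about 1.5 cm of soil. An emulsion formulation diluted with water to a predetermined herbicide amount was sprayed evenly onto the soil surface. Plants grew in a greenhouse at 25° C. to 30° C., and the effect was scored three weeks after application using criteria from an earlier test.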

| Structure (SMILES) | herbicidal effect rating, N: redroot pigweed |
| --- | --- |
| CCCCOc1ccc(-c2sc3ccc(F)cc3c2-c2c(OC(=O)CCC)c(C)nn(C)c2=O)cc1 [2-037] | 5 (Herbicidal rate of 90% or more (almost completely withered)) |
| CCCC(=O)Oc1c(C)nn(C)c(=O)c1-c1c(-c2ccc(CC)cc2)sc2ccc(F)cc12 [2-016] | 5 (Herbicidal rate of 90% or more (almost completely withered)) |

Same assay, conditions: AAH 320 g/ha

| Structure (SMILES) | N: redroot pigweed, herbicidal effect rating |
| --- | --- |
| Cc1nn(C)c(=O)c(-c2c(-c3ccc(OCC(F)F)cc3)sc3ccccc23)c1O [1-203] | 5 (Herbicidal rate of 90% or more (almost completely withered)) |

System: wild oat
Test: Test Example 4: herbicidal effect by soil treatment (Table 19, symbol I)
Format: in vivo, wild oat (Avena fatua)
Conditions: 320 g/ha
In short: as §2

| Structure (SMILES) | herbicidal effect rating, I: wild oat |
| --- | --- |
| CCCCOc1ccc(-c2sc3ccc(F)cc3c2-c2c(OC(=O)CCC)c(C)nn(C)c2=O)cc1 [2-037] | 0 (Herbicidal rate of 5% or less (almost no effect)) |
| CCCC(=O)Oc1c(C)nn(C)c(=O)c1-c1c(-c2ccc(CC)cc2)sc2ccc(F)cc12 [2-016] | 0 (Herbicidal rate of 5% or less (almost no effect)) |

Same assay, conditions: AAH 320 g/ha

| Structure (SMILES) | I: wild oat, herbicidal effect rating |
| --- | --- |
| Cc1nn(C)c(=O)c(-c2c(-c3ccc(OCC(F)F)cc3)sc3ccccc23)c1O [1-203] | 1 (Herbicidal rate of 5% or more and less than 20%) |

System: green foxtail
Test: Test Example 5: herbicidal effect by foliage application, plastic box (Table 20, symbol G)
Format: in vivo, green foxtail (Setaria viridis)
Conditions: foliage application, 320 g/ha, 3 weeks after application
In short: as §1

| Structure (SMILES) | effect on green foxtail (G) |
| --- | --- |
| Cc1nn(C)c(=O)c(-c2c(-c3ccc(OCC(F)F)cc3)sc3ccccc23)c1O [1-203] | 5 (Herbicidal rate of 90% or more (almost completely withered)) |
| CCCCOc1ccc(-c2sc3ccc(F)cc3c2-c2c(OC(=O)CCC)c(C)nn(C)c2=O)cc1 [2-037] | 3 (Herbicidal rate of 40% or more and less than 70%) |
| CCCC(=O)Oc1c(C)nn(C)c(=O)c1-c1c(-c2ccc(CC)cc2)sc2ccc(F)cc12 [2-016] | 0 (Herbicidal rate of 5% or less (almost no effect)) |

System: green foxtail
Test: Test Example 4: herbicidal effect by soil treatment (Table 19, symbol G)
Format: in vivo, green foxtail (Setaria viridis)
Conditions: 320 g/ha
In short: as §2

| Structure (SMILES) | herbicidal effect rating, G: green foxtail |
| --- | --- |
| CCCCOc1ccc(-c2sc3ccc(F)cc3c2-c2c(OC(=O)CCC)c(C)nn(C)c2=O)cc1 [2-037] | 2 (Herbicidal rate of 20% or more and less than 40%) |
| CCCC(=O)Oc1c(C)nn(C)c(=O)c1-c1c(-c2ccc(CC)cc2)sc2ccc(F)cc12 [2-016] | 0 (Herbicidal rate of 5% or less (almost no effect)) |

Same assay, conditions: AAH 320 g/ha

| Structure (SMILES) | G: green foxtail, herbicidal effect rating |
| --- | --- |
| Cc1nn(C)c(=O)c(-c2c(-c3ccc(OCC(F)F)cc3)sc3ccccc23)c1O [1-203] | 5 (Herbicidal rate of 90% or more (almost completely withered)) |

System: blackgrass
Test: Test Example 5: herbicidal effect by foliage application, plastic box (Table 20, symbol J)
Format: in vivo, blackgrass (Alopecurus myosuroides)
Conditions: foliage application, 320 g/ha, 3 weeks after application
In short: as §1

| Structure (SMILES) | effect on blackgrass (J) |
| --- | --- |
| Cc1nn(C)c(=O)c(-c2c(-c3ccc(OCC(F)F)cc3)sc3ccccc23)c1O [1-203] | 2 (Herbicidal rate of 20% or more and less than 40%) |
| CCCCOc1ccc(-c2sc3ccc(F)cc3c2-c2c(OC(=O)CCC)c(C)nn(C)c2=O)cc1 [2-037] | 0 (Herbicidal rate of 5% or less (almost no effect)) |
| CCCC(=O)Oc1c(C)nn(C)c(=O)c1-c1c(-c2ccc(CC)cc2)sc2ccc(F)cc12 [2-016] | 1 (Herbicidal rate of 5% or more and less than 20%) |

System: Japanese bulrush
Test: Test Example 1: herbicidal activity, application before weed generation under submerged conditions (Table 16, symbol B)
Format: in vivo, Japanese bulrush (Schoenoplectus juncoides)
Conditions: 320 g/ha applied herbicide
In short: (§3)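 Alluvial soil was flooded to 4 cm depth, weed seeds were sown mixed and 2.5-leaf rice seedlings were transplanted. On sowing day, the compound's emulsion, diluted in water to a set dose, was applied to the water surface. Plants grew at 25–30 °C and were scored 0–5 after three weeks.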

| Structure (SMILES) | Herbicidal effect on B: Japanese bulrush (grade 0-5) |
| --- | --- |
| Cc1nn(C)c(=O)c(-c2c(-c3ccc(OCC(F)F)cc3)sc3ccccc23)c1O [1-203] | 5 (Herbicidal rate of 90% or more (almost completely withered)) |
| CCCCOc1ccc(-c2sc3ccc(F)cc3c2-c2c(OC(=O)CCC)c(C)nn(C)c2=O)cc1 [2-037] | 2 (Herbicidal rate of 20% or more and less than 40%) |
| CCCC(=O)Oc1c(C)nn(C)c(=O)c1-c1c(-c2ccc(CC)cc2)sc2ccc(F)cc12 [2-016] | 3 (Herbicidal rate of 40% or more and less than 70%) |

System: oval-leafed pondweed
Test: Test Example 2: herbicidal activity, application during weed generation under submerged conditions (Table 17, symbol C)
Format: in vivo, oval-leafed pondweed (Monochoria vaginalis)
Conditions: AAH 320 g/ha; application during weed generation, submerged conditions
In short: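 Mixed weed seedlings in alluvial soil under a 4 cm water layer, greenhouse-grown at 25–30° C. Compound given as a diluted emulsion into the floodwater at the 1–2 leaf stage; response graded after three weeks.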

| Structure (SMILES) | herbicidal effect rating, C: oval-leafed pondweed |
| --- | --- |
| Cc1nn(C)c(=O)c(-c2c(-c3ccc(OCC(F)F)cc3)sc3ccccc23)c1O [1-203] | 4 (Herbicidal rate of 70% or more and less than 90%) |
| CCCCOc1ccc(-c2sc3ccc(F)cc3c2-c2c(OC(=O)CCC)c(C)nn(C)c2=O)cc1 [2-037] | 3 (Herbicidal rate of 40% or more and less than 70%) |
| CCCC(=O)Oc1c(C)nn(C)c(=O)c1-c1c(-c2ccc(CC)cc2)sc2ccc(F)cc12 [2-016] | 4 (Herbicidal rate of 70% or more and less than 90%) |

System: oval-leafed pondweed
Test: Test Example 1: herbicidal activity, application before weed generation under submerged conditions (Table 16, symbol C)
Format: in vivo, oval-leafed pondweed (Monochoria vaginalis)
Conditions: 320 g/ha applied herbicide
In short: as §3

| Structure (SMILES) | Herbicidal effect on C: oval-leafed pondweed (grade 0-5) |
| --- | --- |
| Cc1nn(C)c(=O)c(-c2c(-c3ccc(OCC(F)F)cc3)sc3ccccc23)c1O [1-203] | 4 (Herbicidal rate of 70% or more and less than 90%) |
| CCCCOc1ccc(-c2sc3ccc(F)cc3c2-c2c(OC(=O)CCC)c(C)nn(C)c2=O)cc1 [2-037] | 3 (Herbicidal rate of 40% or more and less than 70%) |
| CCCC(=O)Oc1c(C)nn(C)c(=O)c1-c1c(-c2ccc(CC)cc2)sc2ccc(F)cc12 [2-016] | 5 (Herbicidal rate of 90% or more (almost completely withered)) |

System: rice flat sedge
Test: Test Example 3: herbicidal effect by foliage application, Wagner pot (Table 18, symbol E)
Format: in vivo, rice flat sedge (Cyperus iria)
Conditions: 320 g/ha
In short: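 Plants were sown in alluvial soil held under 0.1–0.5 cm standing water and grown 14 days in a greenhouse at 25–30 °C. An emulsifiable formulation, water-diluted to the set dose, was then sprayed onto the foliage, and effects were scored three weeks later using previously defined criteria.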

| Structure (SMILES) | herbicidal effect on E (rice flat sedge), rating 0-5 |
| --- | --- |
| Cc1nn(C)c(=O)c(-c2c(-c3ccc(OCC(F)F)cc3)sc3ccccc23)c1O [1-203] | 5 (Herbicidal rate of 90% or more (almost completely withered)) |
| CCCCOc1ccc(-c2sc3ccc(F)cc3c2-c2c(OC(=O)CCC)c(C)nn(C)c2=O)cc1 [2-037] | 4 (Herbicidal rate of 70% or more and less than 90%) |
| CCCC(=O)Oc1c(C)nn(C)c(=O)c1-c1c(-c2ccc(CC)cc2)sc2ccc(F)cc12 [2-016] | 5 (Herbicidal rate of 90% or more (almost completely withered)) |

System: barnyard grass
Test: Test Example 4: herbicidal effect by soil treatment (Table 19, symbol H)
Format: in vivo, barnyard grass (Echinochloa crus-galli)
Conditions: 320 g/ha
In short: as §2

| Structure (SMILES) | herbicidal effect rating, H: barnyard grass |
| --- | --- |
| CCCCOc1ccc(-c2sc3ccc(F)cc3c2-c2c(OC(=O)CCC)c(C)nn(C)c2=O)cc1 [2-037] | 0 (Herbicidal rate of 5% or less (almost no effect)) |
| CCCC(=O)Oc1c(C)nn(C)c(=O)c1-c1c(-c2ccc(CC)cc2)sc2ccc(F)cc12 [2-016] | 1 (Herbicidal rate of 5% or more and less than 20%) |

Same assay, conditions: AAH 320 g/ha

| Structure (SMILES) | H: barnyard grass, herbicidal effect rating |
| --- | --- |
| Cc1nn(C)c(=O)c(-c2c(-c3ccc(OCC(F)F)cc3)sc3ccccc23)c1O [1-203] | 5 (Herbicidal rate of 90% or more (almost completely withered)) |

System: chickweed
Test: Test Example 4: herbicidal effect by soil treatment (Table 19, symbol P)
Format: in vivo, common chickweed (Stellaria media)
Conditions: 320 g/ha
In short: as §2

| Structure (SMILES) | herbicidal effect rating, P: chickweed |
| --- | --- |
| CCCCOc1ccc(-c2sc3ccc(F)cc3c2-c2c(OC(=O)CCC)c(C)nn(C)c2=O)cc1 [2-037] | 1 (Herbicidal rate of 5% or more and less than 20%) |
| CCCC(=O)Oc1c(C)nn(C)c(=O)c1-c1c(-c2ccc(CC)cc2)sc2ccc(F)cc12 [2-016] | 1 (Herbicidal rate of 5% or more and less than 20%) |

Same assay, conditions: AAH 320 g/ha

| Structure (SMILES) | P: chickweed, herbicidal effect rating |
| --- | --- |
| Cc1nn(C)c(=O)c(-c2c(-c3ccc(OCC(F)F)cc3)sc3ccccc23)c1O [1-203] | 5 (Herbicidal rate of 90% or more (almost completely withered)) |

System: velvetleaf
Test: Test Example 5: herbicidal effect by foliage application, plastic box (Table 20, symbol M)
Format: in vivo, velvetleaf (Abutilon theophrasti)
Conditions: foliage application, 320 g/ha, 3 weeks after application
In short: as §1

| Structure (SMILES) | effect on velvetleaf (M) |
| --- | --- |
| Cc1nn(C)c(=O)c(-c2c(-c3ccc(OCC(F)F)cc3)sc3ccccc23)c1O [1-203] | 5 (Herbicidal rate of 90% or more (almost completely withered)) |
| CCCCOc1ccc(-c2sc3ccc(F)cc3c2-c2c(OC(=O)CCC)c(C)nn(C)c2=O)cc1 [2-037] | 5 (Herbicidal rate of 90% or more (almost completely withered)) |
| CCCC(=O)Oc1c(C)nn(C)c(=O)c1-c1c(-c2ccc(CC)cc2)sc2ccc(F)cc12 [2-016] | 5 (Herbicidal rate of 90% or more (almost completely withered)) |
